# Source: patent publication US12077503B2, “Substituted cyclic amides and their use as herbicides” (FMC CORPORATION, priority 2015, dated 2024)
# Tests used:
# Type in all cases: in vivo
# [1] = tested on: wheat (Triticum aestivum); experiment: Test A postemergence; details: Triticum aestivum, post-emergence, 240 h, postemergence, read-out: Wheat plant response rating
# In short: (§1)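 Compounds were formulated in a non-phytotoxic solvent mixture with surfactant and applied as a preemergence directed soil spray after seeding, or sprayed postemergence over plants 2 to 10 cm tall at the one- to two-leaf stage. Evaluation after about 10 d compared treated with untreated controls, using a scale from 0 (no effect) to 100 (complete control).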
# [2] = tested on: ragweed (common ragweed, Ambrosia elatior); experiment: Test A postemergence; details: Ambrosia artemisiifolia, post-emergence, 240 h, postemergence, read-out: Ragweed plant response rating
# In short: as §1
# corn (Zea mays) = experiment: Test A postemergence; details: Zea mays, post-emergence, 240 h, postemergence, read-out: Corn plant response rating
# In short: as §1
# [3] = tested on: giant foxtail (Setaria faberii); experiment: Test A postemergence; details: Setaria faberi, post-emergence, 240 h, postemergence, read-out: Foxtail, Giant plant response rating
# In short: as §1
# [4] = tested on: pigweed (Amaranthus retroflexus); experiment: Test A postemergence; details: Amaranthus retroflexus, post-emergence, 240 h, postemergence, read-out: Pigweed plant response rating
# In short: as §1
# [5] = tested on: ryegrass, Italian (Italian ryegrass, Lolium multiflorum); experiment: Test A postemergence; details: Lolium multiflorum, post-emergence, 240 h, postemergence, read-out: Ryegrass, Italian plant response rating
# In short: as §1
# [6] = tested on: blackgrass (Alopecurus myosuroides); experiment: Test A postemergence; details: Alopecurus myosuroides, post-emergence, 240 h, postemergence, read-out: Blackgrass plant response rating
# In short: as §1
# [7] = tested on: barnyardgrass (Echinochloa crus-galli); experiment: Test A postemergence; details: Echinochloa crus-galli, post-emergence, 240 h, postemergence, read-out: Barnyardgrass plant response rating
# In short: as §1
# [8] = tested on: Galium (catchweed bedstraw, Galium aparine); experiment: Test A postemergence; details: Galium, post-emergence, 240 h, postemergence, read-out: Galium plant response rating
# In short: as §1
# [9] = tested on: ragweed (common ragweed, Ambrosia elatior); experiment: Test A preemergence; details: Ambrosia artemisiifolia, pre-emergence, 240 h, preemergence, read-out: Ragweed plant response rating
# In short: as §1
# [10] = tested on: giant foxtail (Setaria faberii); experiment: Test A preemergence; details: Setaria faberi, pre-emergence, 240 h, preemergence, read-out: Foxtail, Giant plant response rating
# In short: as §1
# [11] = tested on: pigweed (Amaranthus retroflexus); experiment: Test A preemergence; details: Amaranthus retroflexus, pre-emergence, 240 h, preemergence, read-out: Pigweed plant response rating
# [12] = tested on: ryegrass, Italian (Italian ryegrass, Lolium multiflorum); experiment: Test A preemergence; details: Lolium multiflorum, pre-emergence, 240 h, preemergence, read-out: Ryegrass, Italian plant response rating
# In short: as §1
# [13] = tested on: barnyardgrass (Echinochloa crus-galli); experiment: Test A preemergence; details: Echinochloa crus-galli, pre-emergence, 240 h, preemergence, read-out: Barnyardgrass plant response rating
# In short: as §1
# Kochia (Kochia scoparia) = experiment: Test A preemergence; details: Bassia scoparia, pre-emergence, 240 h, preemergence, read-out: Kochia plant response rating
# In short: as §1
# [14] = 125 g ai/ha, visual injury on 0 to 100 scale (0 no effect, 100 complete control), approx. 10 d
# [15] = 500 g ai/ha, 0 to 100 scale, 0 is no effect, 100 is complete control
# [16] = 125 g ai/ha, 0 to 100 scale where 0 is no effect and 100 is complete control, approx. 10 d
# [17] = 500 g ai/ha, visual injury rating about 10 d after treatment, 0 to 100 scale (0 no effect, 100 complete control)
compound,measurement,setting,value
Cc1cc([C@H]2CN(C)C(=O)[C@@H]2C(=O)Nc2ccccc2F)ccc1Br [Compound 1098],plant injury at 125 g/ha,[1]; [14],0%
same,plant injury at 500 g/ha,[1]; [15],50%
same,pest or weed control at 125 g/ha,[2]; [14],0%
same,pest or weed control at 500 g/ha,[2]; [15],0%
same,plant injury at 125 g/ha,corn (Zea mays); [14],0%
same,plant injury at 500 g/ha,corn (Zea mays); [15],70%
same,pest or weed control at 125 g/ha,[3]; [14],80%
same,pest or weed control at 500 g/ha,[3]; [15],90%
same,pest or weed control at 125 g/ha,[4]; [14],0%
same,pest or weed control at 500 g/ha,[4]; [15],0%
same,pest or weed control at 125 g/ha,[5]; [14],40%
same,pest or weed control at 500 g/ha,[5]; [15],50%
same,pest or weed control at 125 g/ha,[6]; [14],20%
same,pest or weed control at 500 g/ha,[6]; [15],30%
same,pest or weed control at 125 g/ha,[7]; [14],80%
same,pest or weed control at 500 g/ha,[7]; [15],90%
same,pest or weed control at 125 g/ha,[8]; [14],30%
same,pest or weed control at 500 g/ha,[8]; [15],40%
same,pest or weed control at 125 g/ha,[9]; [16],0%
same,pest or weed control at 500 g/ha,[9]; [17],0%
same,pest or weed control at 125 g/ha,[10]; [16],90%
same,pest or weed control at 500 g/ha,[10]; [17],90%
same,pest or weed control at 125 g/ha,[11]; [16],0%
same,pest or weed control at 500 g/ha,[11]; [17],0%
same,pest or weed control at 125 g/ha,[12]; [16],20%
same,pest or weed control at 500 g/ha,[12]; [17],50%
same,pest or weed control at 125 g/ha,[13]; [16],90%
same,pest or weed control at 500 g/ha,[13]; [17],90%
same,pest or weed control at 125 g/ha,Kochia (Kochia scoparia); [16],20%
same,pest or weed control at 500 g/ha,Kochia (Kochia scoparia); [17],70%
